Among the data in a melting point compilation (Tetko et al.; mined from patent text by program, amines drawn as free bases though some values may be those of a salt) are melting point values, retold here.

SMILES strings stand for the structures.

Take `Cc1scc(-c2ccccc2)c1N=C1NCCN1`: the melting point fell in the range of 140 to 141 °C. Turning to `N#CC(c1ccc(Cl)cc1)c1ccc(-n2ncc(=O)[nH]c2=O)cc1` (stereo not given), the melting point turned out to be 206 °C.

`O=C1NCC(CN2CCCCC2)c2c[nH]c3cccc1c23` (stereo not given) gave a melting point of 119 to 122 °C. On to `N#CC(C#N)=C1C=C(c2ccccc2)S(=O)(=O)C(c2cccs2)=C1`, for which the melting point was in the range of 214 to 232 °C. To `c1cc(CC[C@H]2CNCCN2)co1` belongs 112 to 114 °C; to `Brc1ccc2cc(Cc3cc4ccc(Br)cc4o3)oc2c1`, 146 to 147 °C.

Compound `CC(C)(C)C(NC(=O)c1ccc(Cl)cc1)NC(=NC#N)Nc1c(F)cccc1F` (stereo not given) gave a melting point of 211 to 213 °C. Turning to `Cc1cc2c(F)cc(F)c(-n3c(=O)cc(C(F)(F)F)n(C)c3=O)c2o1`, the melting point lay within 176 to 178 °C. `CC(Cc1c[nH]c2ccccc12)(NC(=O)OC1C2CC3CC(C2)CC1C3)C(=O)NCCc1ccccn1` (stereo not given) yielded a melting point of 89 to 91 °C. On to `COCCOc1ccccc1-c1cc(Nc2cccc(S(C)(=O)=O)c2)ncn1`, for which the melting point fell in the range of 153 to 154 °C. For the compound `NC(=O)c1ccnn1-c1ccc(Oc2ccccc2)cc1`, the melting point was in the range of 142 to 144 °C. With `Cc1ccc(-c2ccc(S(C)(=O)=O)cc2)n1-c1ccc(-c2nccs2)cc1`, the melting point is 190 to 191 °C.

`COc1ccc2c(c1)C13CCCCC1(CC2)CCN3C` (stereo not given) registered a melting point of 100 to 102 °C. To `Cn1nc(-c2cc(C(=O)O)c(Cl)cc2F)c(C=O)c1C(F)(F)F` belongs 163 °C; to `C[C@H]1N(C(=O)OCc2ccccc2)COC1(O)c1ccc(OCc2ccccc2)cc1` (stereo not given in full), 82 to 86 °C.

In the case of `CC(=NOCCOc1ccc(CC2SC(=O)NC2=O)cc1)c1ccc(-c2ccc(C(F)(F)F)cc2)cc1` (stereo not given), the melting point lay in the range of 165 to 166 °C. Under `COc1ccc2oc(N)c(C#N)c(=O)c2c1` stands 320 °C; under `CCCn1ccc2c(NCCc3ccc(O)cc3)cccc2c1=O`, 170 to 171 °C.

In turn, `Cc1ccc(-c2cc(N3CCCCC3)c(C#N)c3c2-c2ccccc2C3)cc1` showed a melting point of 162 to 164 °C. As to `Cc1cc(C)cc(NCc2ccc3nc(NCC(O)CN4CCOCC4)n(Cc4nc(C)ccc4O)c3c2)c1` (stereo not given), the melting point was 198 °C.

In the case of `CCCNC(=O)Cc1ccc2ccn(C3CCN(CCc4ccc(F)cc4)CC3)c2c1`, the melting point was 131 to 132 °C. Under `COc1ccc2c(C)c(C)oc2c1C=O` stands 88 °C; under `CN1CCOc2cc(S(=O)(=O)n3c(COC(C)(C)C(=O)O)cc4cc(Cl)ccc43)ccc21`, 148 to 150 °C. Under `COc1ccc(C2CC3(C)C(=O)CCC3C3CCC4=CC(=O)CCC4C23)cc1` (stereo not given) stands 155 to 156 °C; under `CN(C)NC(=O)NCCCCC1CCSS1` (stereo not given), 60 to 61 °C. Turning to `C=C(C)c1csc(SC)c1`, the melting point fell in the range of 71 to 73 °C.

As to `N#Cc1cccnc1-n1cc(-c2ccc(Oc3ccccc3)cc2)c2c(N)ncnc21`, the melting point came out at 242 °C.

In the case of `O=C1NC(Cc2ccc(OCc3ccccc3)cn2)C(=O)NC1Cc1ccc(F)cc1` (stereo not given), the melting point lay within 220 to 222 °C. In the case of `Fc1cccc(Nc2cc(-c3ccnc(NC4CCOCC4)n3)ccn2)c1`, the melting point lay within 190 to 192 °C.

`C=Cc1nc(C#N)c(C#N)[nH]1`: the melting point lay in the range of 168 to 170 °C. Under `COc1cc2c(cc1OCC(=O)O)C1Cc3c(Cl)cc(OC)c(OCC(=O)O)c3CN1CC2` (stereo not given) stands 202 to 204 °C.

The compound `CC(C)NCC1CCN(c2c(F)cc3c(=O)c(C(=O)O)cn(C4CC4)c3c2F)C1` (stereo not given) gave a melting point of 218 to 221 °C. Consider `O=C1CCCC(=O)C1C(=O)c1ccccc1[N+](=O)[O-]`, for which the melting point lay within 132 to 135 °C. Under `CC(C)OC(=O)C(C(N)=O)=C1SCS1` stands 128 to 129 °C; under `Cc1ccc(Cc2cnc(NCCCCc3ncc(I)cc3C)[nH]c2=O)cn1`, 160 to 162 °C; under `Cc1c([N+](=O)[O-])oc2ccc(-c3ccc(CC(=O)O)cc3)cc12`, 229 to 230 °C.

As for `CCSc1cc(C)nc(SCC)c1NC(=O)CCCCCCCSc1nc2c(C)c(Cl)cc(C(C)C)c2o1`, the melting point lay within 82 to 84 °C. `CCOC1=C(C#N)C(c2ccccc2)=C2C(=O)N(CC)C(c3ccccc3)=C12`: the melting point fell in the range of 200 to 202 °C.

Regarding `CC(C)(C)COC(=O)c1cc(Cl)c(F)c(Cl)c1F`, the melting point lay within 38 to 42 °C. Under `COc1ccc2c(n1)c(C=O)c1n2Cc2ccccc2-1` stands 229 to 230 °C. To `CC1c2ccccc2CC(O)Cc2ccccc21` (stereo not given) belongs 142 to 145 °C; to `CC(C)C1(C)Cc2cc(OCC#N)c(Cl)c(Cl)c2C1=O` (stereo not given), 133 °C; to `CC1C(=O)N(Oc2ccc(F)cc2F)Cc2ccc(NC3CCOCC3)nc21` (stereo not given), 238 to 239 °C. With `CC(C)(C)C1=NN=C(N)SC1`, the melting point was 75 to 77 °C. Compound `CN(C(=O)OC(C)(C)C)C1C2CCC1CN(CC(O)COc1ccc(C#N)cc1)C2` (stereo not given) registered a melting point of 109 to 112 °C.

As to `CCC(CO)(c1cccs1)N(C)C` (stereo not given), the melting point was in the range of 66 to 68 °C. With `Cc1nc2c(N)nc3c(c2n1CCCCS(=O)(=O)C(C)C)CCCC3`, the melting point was in the range of 177 to 178 °C. To `CN1C(=O)C2(COc3cc4c(cc32)OCCO4)c2c(NS(C)(=O)=O)cccc21` (stereo not given) belongs 184 to 186 °C; to `O=C(Nc1cccc(Cl)c1C(=O)O)c1ccccc1`, 208 to 210 °C; to `CCOC(=O)/C=C/c1cc(-c2ccccc2)n(-c2ccc(S(C)(=O)=O)cc2)n1`, 164 to 168 °C. To `CN1C(=O)CC[C@]2(C)c3ccc(-c4ccc(C(F)(F)F)cc4[N+](=O)[O-])cc3CC[C@@H]12` belongs 55 to 57 °C; to `O=C(c1ccc(-c2cnc3c(c2)N(Cc2ccccc2)CCN3)cc1)N1CCC(N2CCCC2)CC1`, 120 °C. To `O=C(NCC12CC3CC(CC(C3)C1)C2)c1cc(OCCO)ncc1Cl` belongs 154 to 155 °C. `FC(F)(F)c1ccc(-c2nnc(-c3cccc(C4OCCO4)c3)o2)cc1` gave a melting point of 107 to 108 °C. To `COC(=O)C(C)Oc1cc(C)ccc1C=O` (stereo not given) belongs 65 to 68 °C; to `COc1ccc(S(=O)(=O)Nc2ccc(-c3ccccc3)cc2)cc1OC`, 171 to 173 °C; to `CCC(=O)NC[C@H]1CN(c2ccc3c(c2)C[C@@H](C)N3C=O)C(=O)O1`, 118 to 119 °C. Under `Cc1oc(-c2ccccc2)nc1COc1ccc(Cn2cc(C(=O)O)c(-c3cccs3)n2)cc1` stands 204 to 205 °C. As to `COc1ccc(Cl)c(Oc2c(C=O)nc(N3CCOCC3)nc2NS(=O)(=O)c2ccc(C(C)C)cn2)c1`, the melting point worked out at 194 °C. To `CC1Nc2ccc(Cl)c3cccc(c23)S1(=O)=O` (stereo not given) belongs 150 °C; to `CC1(C)CCC(C)(C)c2c(OCc3ccc(C(F)(F)F)cc3)cc(C(O)C#Cc3ccc(C(=O)O)cc3)cc21` (stereo not given), 222 °C; to `CC(C)(C)[Si](C)(C)Oc1cc(Cl)cc(C(O)(C#CC2CC2)C(F)(F)F)c1N` (stereo not given), 125 to 126 °C. To `CCN(CC)CCNC(=O)c1cc(Cl)c(NS(=O)(=O)c2ccc3ccccc3c2)cc1OC` belongs 148 to 149 °C; to `CC(=O)c1ccc(-n2c(C)ccc2-c2ccc(S(C)(=O)=O)cc2)cc1`, 179 to 180 °C. `COc1ccc(-c2ccc(C)c3occc23)cc1` had a melting point of 40 to 41 °C. To `N#CCCCCCCCCCCCCC#N` belongs less than 40 °C. `O=[N+]([O-])c1ccc(-c2cnn3c(O)ncnc23)cc1` yielded a melting point of more than 300 °C. Under `CCN(CC)C(=O)c1cc(-c2ccccc2)c2ccccc2c1` stands 123 to 124 °C; under `CCCCCCNC(=O)Nc1ccccc1C(=O)NCC1CCN(C(c2ccccc2)c2ccccc2)CC1`, 168 to 169 °C; under `CSCCC(=O)Nc1cc(-c2c(-c3ccc(F)c(C)c3)nc3cccnn23)ccn1`, 158 to 159 °C. To `C=CCc1ccc(OCC(O)CO)c(OC)c1` (stereo not given) belongs 77 to 79 °C; to `Nc1cc(-n2ccc(=O)cc2)ccc1[N+](=O)[O-]`, 298 to 303 °C. With `Oc1ccc(Br)cc1C(O)c1ccc2ccccc2c1` (stereo not given), the melting point lay in the range of 115 to 117 °C.

For `Cc1ccc(-c2c(C(=O)NCc3cc(C(F)(F)F)cc(C(F)(F)F)c3)oc(=O)c3cnccc23)cc1`, the melting point lay in the range of 188 to 189 °C. Under `CCN(CC)C(=O)COC(=O)c1cccc(NC(=O)C(CS)Cc2ccccc2)c1` (stereo not given) stands 160 to 163 °C; under `CN1CC(c2ccc(Cc3ccc(F)cc3)cn2)=C(O)C1=O`, 204 to 206 °C; under `COc1ccc(C(=O)C=Cc2c(O)cc(OCCBr)cc2O)cc1O`, 158 to 162 °C. For the compound `CCCn1nc2c(N)nc3ccccc3c2c1NCC`, the melting point lay within 193 to 194 °C.

Take `O=C(O)CC[C@@H](Cc1cn(CCCc2ccccc2)c2ccccc12)NC(=O)CCCCCCc1ccccc1`: the melting point was in the range of 100 to 102 °C. Take `Cc1c(Nc2c(C#N)cnc3sccc23)ccc2[nH]ccc12`: the melting point was 255 °C. Under `CC(C)(C)OC(=O)N[C@H]1COc2ccccc2NC1=O` stands 202 to 203 °C; under `COC(=O)CC(NC(=O)OC(C)(C)C)c1ccc(O)cc1` (stereo not given), 119 to 120 °C; under `CCc1cc(Cl)ccc1NC(C)=O`, 117 to 122 °C. For the compound `CC(C)(C)c1nc(/C=C/c2cn(-c3ccccc3)nc2O)cs1`, the melting point lay within 209 to 211 °C. `CCN(CC)CCNC(=O)c1cc(Cl)c(N)cc1OCCS(=O)CC` (stereo not given) returned a melting point of 92 to 94 °C. Turning to `O=C1C2CCCC2=Nc2ccccc2N1CCc1ccccc1` (stereo not given), the melting point was in the range of 101 to 102 °C. Take `CN(C(=O)COc1cc(-c2ccccc2)nc2ccccc12)C1CCC1`: the melting point was found to be 110 °C. In turn, `O=[N+]([O-])c1cc(Cn2cncn2)ccc1Cl` returned a melting point of 98.9 °C. Under `COc1ccc(C=CC(C)=O)cc1OC` stands 78 to 80 °C; under `CCOC(=O)COc1ccc(-c2nc3ncccc3[nH]2)c(OC)c1`, 198 °C.
